Values quoted from earlier work in patent US7041819B2, “Halogenated calixpyrroles and uses thereof” (Board of Regents, The University of Texas System, priority 1996, dated 2006).

How the values were obtained:
[1] = acetonitrile-d3 (0.5% v/v D2O) at 22° C.; Anzenbacher et al. 1999; cited from earlier work
[2] = acetonitrile-d3 (0.5% v/v D2O) at 22° C.; Anzenbacher et al. 1999; cited from earlier work; remark: listed apart in the source
[3] = acetonitrile-d3 (0.5% v/v D2O) at 22° C.; Anzenbacher et al. 1999; cited from earlier work; remark: listed apart in the source
[4] = acetonitrile-d3 (0.5% v/v D2O) at 22° C.; Anzenbacher et al. 1999; cited from earlier work; remark: listed apart in the source

## meso-octamethylcalix[4]pyrrole [Compound 1]
[1]
  Affinity constant, F^−: >10 000 mol^−1
[2]
  Affinity constant, Cl^−: 5 000 mol^−1
[3]
  Affinity constant, H2PO4^−: 1 300 mol^−1
[4]
  Affinity constant, DMSO-d6: <5^c mol^−1
